Measured values from US5654318A, “Bicyclic amine derivatives” (Daiichi Pharmaceutical Co., Ltd., priority 1992, dated 1997).
In brackets after ≈: the same amount, converted by molar mass. Each block holds one compound with its values, some of them ahead of it.

Experiments:
[1] = pH 7.4
[2] = system: E. coli NIHJ; assay: Antibacterial activity (MIC), E. coli NIHJ; type: cell-based; conditions: Escherichia coli
Protocol: (§1) The present invention will now be illustrated by way of Formulation Examples, Reference Examples, and Examples, but the present invention should not be construed as being limited thereto. All the percents are by weight unless otherwise indicated. The antibacterial activity assays were performed by the method specified by Japan Society of Chemotherapy (Chemotherapy 29(1), 76 (1981), and the results are summarized in Table 1 in terms of minimum inhibitory concentration (MIC).

[3] = system: S. flexneli, 2A, 5503; assay: Antibacterial activity (MIC), S. flexneli, 2A, 5503; type: cell-based
Protocol: as §1

[4] = system: Pr. vulgaris, 08601; assay: Antibacterial activity (MIC), Pr. vulgaris, 08601; type: cell-based; conditions: Proteus vulgaris
Protocol: as §1

[5] = system: Pr. mirabiris, IFO-3849; assay: Antibacterial activity (MIC), Pr. mirabiris, IFO-3849; type: cell-based
Protocol: as §1

[6] = system: Ser. marcescens, 10100; assay: Antibacterial activity (MIC), Ser. marcescens, 10100; type: cell-based; conditions: Serratia marcescens
Protocol: as §1

[7] = system: Ps. aeruginosa, 32104; assay: Antibacterial activity (MIC), Ps. aeruginosa, 32104; type: cell-based; conditions: Pseudomonas aeruginosa
Protocol: as §1

[8] = system: Ps. aeruginosa, 32121; assay: Antibacterial activity (MIC), Ps. aeruginosa, 32121; type: cell-based; conditions: Pseudomonas aeruginosa
Protocol: as §1

[9] = system: S. aureus, 209P; assay: Antibacterial activity (MIC), S. aureus, 209P; type: cell-based; conditions: Staphylococcus aureus
Protocol: as §1

[10] = system: S. aureus, Smith; assay: Antibacterial activity (MIC), S. aureus, Smith; type: cell-based; conditions: Staphylococcus aureus
Protocol: as §1

[11] = system: S. epidermidis, 56500; assay: Antibacterial activity (MIC), S. epidermidis, 56500; type: cell-based; conditions: Staphylococcus epidermidis
Protocol: as §1

[12] = system: Str. pyogenes, G-36; assay: Antibacterial activity (MIC), Str. pyogenes, G-36; type: cell-based; conditions: Streptococcus pyogenes, G36
Protocol: as §1

[13] = system: Str. faecalis, ATCC 19433; assay: Antibacterial activity (MIC), Str. faecalis, ATCC 19433; type: cell-based; conditions: Enterococcus faecalis, ATCC19433
Protocol: as §1

Partition Coefficient p' [1]: 26.9
Compound: O=C(O)c1cn([C@@H]2C[C@@H]2F)c2c(Cl)c(N3C[C@H]4NCCO[C@@H]4C3)c(F)cc2c1=O (mixture of isomers) [Ex. 7, (+)-8-Chloro-6-fluoro-1-[(1R,2S)-2-fluorocyclopropyl]-7-[trans-2-oxa-5,8-diazabicyclo[4.3.0]-nonan-8-yl]-1,4-dihydro-4-oxoquinoline-3-carboxylic acid]

Partition Coefficient p' [1]: 24.8
Compound: O=C(O)c1cn([C@@H]2C[C@@H]2F)c2c(Cl)c(N3C[C@H]4NCCO[C@@H]4C3)c(F)cc2c1=O (mixture of isomers) [Ex. 8, (-)-8-Chloro-6-fluoro-1-[(1R,2S)-2-fluorocyclopropyl]-7-[trans-2-oxa-5,8-diazabicyclo[4.3.0]nonan-8-yl]-1,4-dihydro-4-oxoquinoline-3-carboxylic acid]

Compound: Nc1c(F)c(N2C[C@H]3NCCO[C@@H]3C2)c(F)c2c1c(=O)c(C(=O)O)cn2[C@@H]1C[C@@H]1F (mixture of isomers) [Ex. 9, 5-Amino-6,8-difluoro-1-[(1R,2S)-2-fluorocyclopropyl]-7-(trans-2-oxa-5,8-diazabicyclo[4.3.0]nonan-8-yl) -1,4-dihydro-4-oxoquinoline-3-carboxylic acid]
MIC [2]: 0.006 µg/mL
MIC [3]: 0.013 µg/mL
MIC [4]: 0.025 µg/mL
MIC [5]: 0.05 µg/mL
MIC [6]: 0.1 µg/mL
MIC [7]: 0.2 µg/mL
MIC [8]: 0.05 µg/mL
MIC [9]: 0.013 µg/mL
MIC [10]: 0.006 µg/mL
MIC [11]: 0.025 µg/mL
MIC [12]: 0.2 µg/mL
MIC [13]: 0.1 µg/mL

Partition Coefficient p' [1]: 112
Compound: O=C(O)c1cn(C2CC2)c2c(Cl)c(N3C[C@H]4NCCO[C@@H]4C3)c(F)cc2c1=O (relative stereo) [Compound A, 8-chloro-1-cyclopropyl-6-fluoro-1,4-dihydro-7-(trans-2-oxa-5,8-diazabicyclo[4.3.0]nonan8-yl)-4-oxo-3-quinoline-3-carboxylic acid, reference compound]

Partition Coefficient p' [1]: 35.8
Compound: O=C(O)c1cn(C2CC2)c2c(Cl)c(N3C[C@@H]4CCCN[C@@H]4C3)c(F)cc2c1=O [Bay y 3118, reference compound]

Compound: O=C(O)c1cn([C@@H]2C[C@@H]2F)c2c(Cl)c(N3C[C@@H]4CCCN[C@@H]4C3)c(F)cc2c1=O [Ex. 2, 8-Chloro-7-([S,S]-2,8-diazabicyclo[4.3.0]nonan-8-yl)-8-chloro-6-fluoro-1-[(1R,2S)-2-fluorocyclopropyl]-1,4-dihydro-4-oxoquinoline-3-carboxylic Acid]
MIC [2]: ≤ 0.003 µg/mL
MIC [3]: 0.006 µg/mL (≈ 0.0142 µM)
MIC [4]: 0.013 µg/mL (≈ 0.0307 µM)
MIC [5]: 0.025 µg/mL (≈ 0.059 µM)
MIC [6]: 0.025 µg/mL (≈ 0.059 µM)
MIC [7]: 0.05 µg/mL (≈ 0.118 µM)
MIC [8]: 0.05 µg/mL (≈ 0.118 µM)
MIC [9]: 0.013 µg/mL (≈ 0.0307 µM)
MIC [10]: 0.006 µg/mL (≈ 0.0142 µM)
MIC [11]: 0.05 µg/mL (≈ 0.118 µM)
MIC [12]: 0.05 µg/mL (≈ 0.118 µM)
MIC [13]: 0.1 µg/mL (≈ 0.236 µM)
Partition Coefficient p' [1]: 6.69

Compound: Nc1c(F)c(N2C[C@@H]3CCCN[C@@H]3C2)c(F)c2c1c(=O)c(C(=O)O)cn2[C@@H]1C[C@@H]1F [Ex. 3, 5-Amino-7-[(S,S)-2,8-diazabicyclo[4.3.0]nonan-8-yl]-6,8-difluoro-1-[(1R,2S)-2-fluorocyclopropyl]-1,4-dihydro-4-oxoquinoline-3-carboxylic acid]
MIC [2]: 0.006 µg/mL (≈ 0.0142 µM)
MIC [3]: 0.013 µg/mL (≈ 0.0308 µM)
MIC [4]: 0.025 µg/mL (≈ 0.0592 µM)
MIC [5]: 0.05 µg/mL (≈ 0.118 µM)
MIC [6]: 0.05 µg/mL (≈ 0.118 µM)
MIC [7]: 0.05 µg/mL (≈ 0.118 µM)
MIC [8]: 0.05 µg/mL (≈ 0.118 µM)
MIC [9]: 0.025 µg/mL (≈ 0.0592 µM)
MIC [10]: 0.006 µg/mL (≈ 0.0142 µM)
MIC [11]: 0.025 µg/mL (≈ 0.0592 µM)
MIC [12]: 0.1 µg/mL (≈ 0.237 µM)
MIC [13]: 0.1 µg/mL (≈ 0.237 µM)

Compound: Cc1c(N2C[C@@H]3CCCN[C@@H]3C2)c(F)cc2c(=O)c(C(=O)O)cn([C@@H]3C[C@@H]3F)c12 [Ex. 4, 7-[(S,S)-2,8-diazabicyclo[4.3.0]nonan-8-yl]-6-fluoro-1-[(1R,2S)-2-fluorocyclopropyl]-8-methyl-1,4-dihydro-4-oxoquinoline-3-carboxylic acid]
MIC [2]: 0.013 µg/mL (≈ 0.0322 µM)
MIC [3]: 0.025 µg/mL (≈ 0.062 µM)
MIC [4]: 0.025 µg/mL (≈ 0.062 µM)
MIC [5]: 0.05 µg/mL (≈ 0.124 µM)
MIC [6]: 0.05 µg/mL (≈ 0.124 µM)
MIC [7]: 0.1 µg/mL (≈ 0.248 µM)
MIC [8]: 0.05 µg/mL (≈ 0.124 µM)
MIC [9]: 0.025 µg/mL (≈ 0.062 µM)
MIC [10]: 0.013 µg/mL (≈ 0.0322 µM)
MIC [11]: 0.05 µg/mL (≈ 0.124 µM)
MIC [12]: 0.1 µg/mL (≈ 0.248 µM)
MIC [13]: 0.2 µg/mL (≈ 0.496 µM)
Partition Coefficient p' [1]: 3.73

Compound: O=C(O)c1cn([C@@H]2C[C@@H]2F)c2c(F)c(N3C[C@@H]4CCCN[C@@H]4C3)c(F)cc2c1=O [Ex. 5, 7-[(S,S)-2,8-diazabicyclo[4.3.0]nonan-8-yl]-6,8-difluoro-1-[(1R,2S)-2-fluorocyclopropyl]-1,4-dihydro-4-oxoquinoline-3-carboxylic acid]
MIC [2]: 0.013 µg/mL (≈ 0.0319 µM)
MIC [3]: 0.013 µg/mL (≈ 0.0319 µM)
MIC [4]: 0.013 µg/mL (≈ 0.0319 µM)
MIC [5]: 0.05 µg/mL (≈ 0.123 µM)
MIC [6]: 0.05 µg/mL (≈ 0.123 µM)
MIC [7]: 0.1 µg/mL (≈ 0.245 µM)
MIC [8]: 0.05 µg/mL (≈ 0.123 µM)
MIC [9]: 0.025 µg/mL (≈ 0.0614 µM)
MIC [10]: 0.013 µg/mL (≈ 0.0319 µM)
MIC [11]: 0.1 µg/mL (≈ 0.245 µM)
MIC [12]: 0.1 µg/mL (≈ 0.245 µM)
MIC [13]: 0.2 µg/mL (≈ 0.491 µM)
Partition Coefficient p' [1]: 5.84

Compound: O=C(O)c1cn([C@@H]2C[C@@H]2F)c2c(Cl)c(N3CC4=C(CNC4)C3)c(F)cc2c1=O [Ex. 6, 8-Chloro-7-[3,7-diazabicyclo[3.3.0]oct-1(5)-ene-3-yl]-6-fluoro-1-[(1R,2S)-2-fluorocyclopropyl]-1,4-dihydro-4-oxoquinoline-3-carboxylic acid]
MIC [2]: 0.025 µg/mL (≈ 0.0613 µM)
MIC [3]: 0.013 µg/mL (≈ 0.0319 µM)
MIC [4]: 0.013 µg/mL (≈ 0.0319 µM)
MIC [5]: 0.05 µg/mL (≈ 0.123 µM)
MIC [6]: 0.2 µg/mL (≈ 0.49 µM)
MIC [7]: 0.2 µg/mL (≈ 0.49 µM)
MIC [8]: 0.1 µg/mL (≈ 0.245 µM)
MIC [9]: 0.025 µg/mL (≈ 0.0613 µM)
MIC [10]: 0.013 µg/mL (≈ 0.0319 µM)
MIC [11]: 0.1 µg/mL (≈ 0.245 µM)
MIC [12]: 0.1 µg/mL (≈ 0.245 µM)
MIC [13]: 0.39 µg/mL (≈ 0.956 µM)
